ChEMBL document CHEMBL1148439, “A phenylnorstatine inhibitor binding to HIV-1 protease: geometry, protonation, and subsite-pocket interactions analyzed at atomic resolution” (J Med Chem, 2004)

Target: Human immunodeficiency virus type 1 protease (Human immunodeficiency virus 1, UniProt Q72874, V82A)
Experiment: Tested for inhibitor binding of Val82Ala mutant of HIV PR
Parameters: species or system human immunodeficiency virus type1

NC(=O)[C@H](CCC(=O)O)NC(=O)[C@H](CCC(=O)O)NC(=O)[C@H](Cc1ccccc1)NC(=O)[C@H](O)[C@H](Cc1ccccc1)NC(=O)OCc1ccccc1
Ki: 0.11 nM
